Here are results for 15 compounds from patent US6586424B2, “Tyrosine kinase inhibitors” (Merck & Co., Inc., priority 1999, dated 2003).

Structures are written as SMILES. Where a name gives a salt, the structure may show the parent alone.

A word on the melting point: it is the temperature of the solid-liquid transition. The compound `Clc1ccc(-c2cnc(Nc3ccccn3)s2)cc1Cl` [Compound 5-24, [5-(3,4-dichloro-phenyl)-thiazol-2-yl]-pyridin-2-yl-amine] returned a melting point of more than 250 °C.
The result for `c1ccc(Nc2ncc(-c3cccc4ccccc34)s2)nc1` [Compound 5-9, (5-Naphthalen-1-yl-thiazol-2-yl)-pyridin-2-yl-amine] reads 223.5 to 226 °C; that for `Fc1ccc(-c2cnc(Nc3ccccn3)s2)cc1` [Compound 5-20, [5-(4-Fluoro-phenyl)-thiazol-2-yl]-pyridin-2-yl-amine], 239 to 240 °C; that for `Fc1cccc(-c2cnc(Nc3ccccn3)s2)c1` [Compound 5-19, [5-(3-Fluoro-phenyl)-thiazol-2-yl]-pyridin-2-yl-amine], more than 250 °C.
The result for `FC(F)(F)c1cccc(-c2cnc(Nc3ccccn3)s2)c1` [Compound 5-15, Pyridin-2-yl-[5-(3-trifluoromethyl-phenyl)-thiazol-2-yl]-amine] reads 242 to 244 °C; that for `FC(F)(F)c1ccc(-c2cnc(Nc3ccccn3)s2)cc1` [Compound 5-16, Pyridin-2-yl-[5-(4-trifluoromethyl-phenyl)-thiazol-2-yl]-amine], more than 250 °C; that for `Clc1ccccc1-c1cnc(Nc2ccccn2)s1` [Compound 5-21, [5-(2-Chloro-phenyl)-thiazol-2-yl]-pyridin-2-yl-amine], 213 to 215 °C.
The result for `CCc1cnc(Nc2ccccn2)s1` [Compound 4-18, (5-Ethyl-thiazol-2-yl)-pyridin-2-yl-amine] reads 113 °C; that for `FC(F)(F)c1ccccc1-c1cnc(Nc2ccccn2)s1` [Compound 5-14, Pyridin-2-yl[5-(2-trifluoromethyl-phenyl)-thiazol-2-yl]-amine], 195 to 203 °C; that for `COC(=O)c1cccc(Nc2ncc(-c3ccccc3)s2)n1` [Compound 4-6, 6-(5-Phenyl-thiazol-2-ylamino)-pyridine-2-carboxylic Acid Methyl Ester], 231 to 232 °C.
In the case of `Brc1ccc(Nc2ncc(-c3ccccc3)s2)nc1` (as salt: HBr) [Compound 4-4, (5-Bromo-pyridin-2-yl)-(5-phenyl-thiazol-2-yl)-amine], the melting point was more than 220 °C.
Consider `Fc1ccccc1-c1cnc(Nc2ccccn2)s1` [Compound 5-18, [5-(2-Fluoro-phenyl)-thiazol-2-yl]-pyridin-2-yl-amine], for which the melting point fell in the range of 227 to 228 °C.
`Clc1ccc(-c2cnc(Nc3ccccn3)s2)cc1` [Compound 5-23, [5-(4-Chloro-phenyl)-thiazol-2-yl]-pyridin-2-yl-amine] came in with a melting point of more than 250 °C.
The compound `Cc1cccc(-c2cnc(Nc3ccccn3)s2)c1` [Compound 5-7, Pyridin-2-yl-(5-m-tolyl-thiazol-2-yl)-amine] showed a melting point of 204 to 205 °C.
`Cc1ccccc1-c1cnc(Nc2ccccn2)s1` [Compound 5-6, Pyridin-2-yl-(5-o-tolyl-thiazol-2-yl)-amine] showed a melting point of 155 to 160 °C.
